How the values were obtained:
PIK3CG (human) = PIK3CG (human) (UniProt P48736); assay: Inhibition of PIK3CG Kinase Activity
PIK3CD (Human) = PIK3CD (Human) (UniProt O00329); assay: Inhibition of PIK3CD Kinase Activity
PIK3CB (Human) = PIK3CB (Human) (UniProt P42338); assay: Inhibition of PIK3CB Kinase Activity
PIK3CA (human) = PIK3CA (human) (UniProt P42336); assay: Inhibition of PIK3CA Kinase Activity

Measured: IC50

Chain of PIK3CG (human) (P48736 whole entry, looked up): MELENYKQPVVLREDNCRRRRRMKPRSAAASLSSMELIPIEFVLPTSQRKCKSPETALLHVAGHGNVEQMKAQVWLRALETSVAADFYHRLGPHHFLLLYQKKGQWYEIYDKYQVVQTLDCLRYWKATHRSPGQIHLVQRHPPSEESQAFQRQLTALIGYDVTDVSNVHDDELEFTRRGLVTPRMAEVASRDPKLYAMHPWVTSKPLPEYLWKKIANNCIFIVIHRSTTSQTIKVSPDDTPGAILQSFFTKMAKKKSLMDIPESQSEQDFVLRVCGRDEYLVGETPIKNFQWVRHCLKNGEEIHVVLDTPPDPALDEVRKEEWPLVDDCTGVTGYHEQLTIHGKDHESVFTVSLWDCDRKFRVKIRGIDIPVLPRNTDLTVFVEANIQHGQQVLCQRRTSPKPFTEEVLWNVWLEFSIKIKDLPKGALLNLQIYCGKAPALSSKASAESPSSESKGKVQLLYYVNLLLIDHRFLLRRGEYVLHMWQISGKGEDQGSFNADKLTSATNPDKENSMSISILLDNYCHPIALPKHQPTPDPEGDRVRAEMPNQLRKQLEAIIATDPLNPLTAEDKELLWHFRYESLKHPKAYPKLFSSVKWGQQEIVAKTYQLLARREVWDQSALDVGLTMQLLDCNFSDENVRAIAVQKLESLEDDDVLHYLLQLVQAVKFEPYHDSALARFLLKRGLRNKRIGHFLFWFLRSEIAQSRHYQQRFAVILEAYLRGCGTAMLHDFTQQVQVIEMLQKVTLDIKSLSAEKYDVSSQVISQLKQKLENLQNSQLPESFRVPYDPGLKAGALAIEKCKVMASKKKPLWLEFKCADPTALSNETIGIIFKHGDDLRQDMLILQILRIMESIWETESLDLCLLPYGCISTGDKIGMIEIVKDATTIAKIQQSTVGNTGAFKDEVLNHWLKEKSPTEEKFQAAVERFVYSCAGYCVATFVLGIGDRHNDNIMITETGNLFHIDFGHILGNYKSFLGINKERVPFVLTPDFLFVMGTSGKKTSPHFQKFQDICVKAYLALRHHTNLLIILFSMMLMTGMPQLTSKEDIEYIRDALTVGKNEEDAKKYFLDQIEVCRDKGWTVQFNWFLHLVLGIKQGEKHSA
Chain of PIK3CB (Human) (P42338 whole entry, looked up): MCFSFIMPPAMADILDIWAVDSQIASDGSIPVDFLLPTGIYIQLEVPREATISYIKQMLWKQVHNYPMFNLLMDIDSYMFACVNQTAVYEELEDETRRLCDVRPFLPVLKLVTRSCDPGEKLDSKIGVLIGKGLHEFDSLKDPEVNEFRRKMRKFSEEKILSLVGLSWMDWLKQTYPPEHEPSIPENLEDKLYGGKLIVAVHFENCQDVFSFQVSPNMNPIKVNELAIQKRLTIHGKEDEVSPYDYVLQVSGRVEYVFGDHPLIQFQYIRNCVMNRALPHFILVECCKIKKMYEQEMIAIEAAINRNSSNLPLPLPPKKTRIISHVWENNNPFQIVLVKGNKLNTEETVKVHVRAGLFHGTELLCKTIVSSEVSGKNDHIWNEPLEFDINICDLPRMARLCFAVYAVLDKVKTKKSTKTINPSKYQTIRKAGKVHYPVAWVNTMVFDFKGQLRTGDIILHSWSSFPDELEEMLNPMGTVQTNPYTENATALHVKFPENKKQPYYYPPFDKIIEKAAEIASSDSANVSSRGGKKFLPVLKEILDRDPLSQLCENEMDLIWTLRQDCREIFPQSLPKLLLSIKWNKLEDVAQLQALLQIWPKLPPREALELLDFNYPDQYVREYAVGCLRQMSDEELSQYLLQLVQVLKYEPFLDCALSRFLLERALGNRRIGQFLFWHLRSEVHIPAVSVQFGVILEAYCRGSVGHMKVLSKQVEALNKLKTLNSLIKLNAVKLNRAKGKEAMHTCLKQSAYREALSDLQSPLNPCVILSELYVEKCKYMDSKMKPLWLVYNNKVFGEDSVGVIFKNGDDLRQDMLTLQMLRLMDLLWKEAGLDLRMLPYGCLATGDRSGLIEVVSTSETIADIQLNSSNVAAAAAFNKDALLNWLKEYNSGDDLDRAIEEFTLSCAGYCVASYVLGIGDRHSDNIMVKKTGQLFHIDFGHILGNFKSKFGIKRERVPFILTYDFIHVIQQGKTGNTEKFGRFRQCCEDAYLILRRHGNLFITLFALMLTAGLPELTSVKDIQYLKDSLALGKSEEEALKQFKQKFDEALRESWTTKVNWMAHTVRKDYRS
Chain of PIK3CA (human) (P42336 whole entry, looked up): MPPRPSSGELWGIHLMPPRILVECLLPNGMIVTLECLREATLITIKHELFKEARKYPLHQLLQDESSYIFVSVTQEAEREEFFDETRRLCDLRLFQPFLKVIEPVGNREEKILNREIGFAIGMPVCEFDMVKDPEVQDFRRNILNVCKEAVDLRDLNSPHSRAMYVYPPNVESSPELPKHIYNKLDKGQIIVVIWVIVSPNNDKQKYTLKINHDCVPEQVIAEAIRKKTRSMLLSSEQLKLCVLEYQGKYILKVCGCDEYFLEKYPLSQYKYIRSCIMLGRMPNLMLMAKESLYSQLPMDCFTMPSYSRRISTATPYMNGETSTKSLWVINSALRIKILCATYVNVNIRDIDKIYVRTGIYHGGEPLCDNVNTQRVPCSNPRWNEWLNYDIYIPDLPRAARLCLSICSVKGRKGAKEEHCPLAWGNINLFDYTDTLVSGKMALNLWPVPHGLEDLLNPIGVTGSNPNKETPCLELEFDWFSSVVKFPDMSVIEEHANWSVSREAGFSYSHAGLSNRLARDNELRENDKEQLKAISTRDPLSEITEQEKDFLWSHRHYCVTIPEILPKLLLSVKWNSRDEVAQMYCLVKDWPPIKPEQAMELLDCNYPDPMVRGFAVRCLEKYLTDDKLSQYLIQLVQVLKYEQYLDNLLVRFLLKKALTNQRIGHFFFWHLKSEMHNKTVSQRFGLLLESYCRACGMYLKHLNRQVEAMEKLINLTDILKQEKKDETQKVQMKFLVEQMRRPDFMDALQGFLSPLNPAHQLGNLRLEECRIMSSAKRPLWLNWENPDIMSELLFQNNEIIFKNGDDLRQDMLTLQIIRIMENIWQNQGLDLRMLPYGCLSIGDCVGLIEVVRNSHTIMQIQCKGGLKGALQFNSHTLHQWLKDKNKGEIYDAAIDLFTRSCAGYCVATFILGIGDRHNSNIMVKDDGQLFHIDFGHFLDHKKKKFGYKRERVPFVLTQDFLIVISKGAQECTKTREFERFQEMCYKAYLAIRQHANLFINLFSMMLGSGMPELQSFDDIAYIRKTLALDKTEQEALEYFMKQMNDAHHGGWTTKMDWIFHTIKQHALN
Chain of PIK3CD (Human) (O00329 whole entry, looked up): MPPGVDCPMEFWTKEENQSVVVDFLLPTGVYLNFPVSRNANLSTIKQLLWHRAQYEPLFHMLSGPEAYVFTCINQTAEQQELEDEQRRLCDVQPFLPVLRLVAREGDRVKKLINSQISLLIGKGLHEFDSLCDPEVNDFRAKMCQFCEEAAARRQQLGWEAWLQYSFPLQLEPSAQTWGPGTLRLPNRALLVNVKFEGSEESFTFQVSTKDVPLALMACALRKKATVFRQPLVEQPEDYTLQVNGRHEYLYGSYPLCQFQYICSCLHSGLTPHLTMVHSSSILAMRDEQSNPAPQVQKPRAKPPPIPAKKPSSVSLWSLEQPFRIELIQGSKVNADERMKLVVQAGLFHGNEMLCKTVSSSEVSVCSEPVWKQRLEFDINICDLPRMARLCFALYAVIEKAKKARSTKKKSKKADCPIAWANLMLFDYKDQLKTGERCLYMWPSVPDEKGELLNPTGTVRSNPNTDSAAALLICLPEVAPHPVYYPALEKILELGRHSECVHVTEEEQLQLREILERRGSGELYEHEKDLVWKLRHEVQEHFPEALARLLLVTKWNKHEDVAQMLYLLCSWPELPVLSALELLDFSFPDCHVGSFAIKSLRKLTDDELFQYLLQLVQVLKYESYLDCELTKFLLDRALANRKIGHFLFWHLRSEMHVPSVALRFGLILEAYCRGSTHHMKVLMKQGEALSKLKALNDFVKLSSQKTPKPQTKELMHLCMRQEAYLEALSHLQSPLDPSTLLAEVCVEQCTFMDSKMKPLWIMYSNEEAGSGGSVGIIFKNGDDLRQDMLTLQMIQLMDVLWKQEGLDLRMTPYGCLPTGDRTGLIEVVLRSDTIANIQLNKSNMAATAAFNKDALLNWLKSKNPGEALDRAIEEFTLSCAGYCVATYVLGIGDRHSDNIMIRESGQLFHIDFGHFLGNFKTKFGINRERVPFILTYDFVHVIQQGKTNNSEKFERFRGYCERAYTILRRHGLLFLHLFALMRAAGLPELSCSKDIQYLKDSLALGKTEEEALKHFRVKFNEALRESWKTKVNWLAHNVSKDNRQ

CC1(C)CC(=O)c2sc(N3CCOCC3Cc3ccc4ccccc4c3)nc2C1 (configuration not stated)
≤ 50 µM: PIK3CG (human) | PIK3CD (Human) | PIK3CB (Human) | PIK3CA (human)

COc1ccc(C2CC(=O)c3sc(N4CCOCC4)nc3C2)cc1 (configuration not stated)
≤ 50 µM: PIK3CG (human) | PIK3CD (Human) | PIK3CB (Human) | PIK3CA (human)

CC(C)C1CC(=O)c2sc(N3CCOCC3)nc2C1 (configuration not stated)
≤ 50 µM: PIK3CG (human) | PIK3CD (Human) | PIK3CB (Human) | PIK3CA (human)

CC1(C)CC(=O)c2sc(N3CCOC[C@@H]3Cc3cccc(N4CCCC4)c3)nc2C1
≤ 50 µM: PIK3CG (human) | PIK3CD (Human) | PIK3CB (Human) | PIK3CA (human)

CC1(C)CC(=O)c2sc(N3CCOC[C@@H]3Cc3cccc(-c4cc5ccccc5s4)c3)nc2C1
≤ 50 µM: PIK3CG (human) | PIK3CD (Human) | PIK3CB (Human) | PIK3CA (human)

CC1(C)CC(=O)c2sc(N3CCOC[C@@H]3CSc3ccccc3)nc2C1
≤ 50 µM: PIK3CG (human) | PIK3CD (Human) | PIK3CB (Human) | PIK3CA (human)

O=C1CC2(CCCC2)Cc2nc(N3CCOCC3)sc21
≤ 50 µM: PIK3CG (human) | PIK3CD (Human) | PIK3CB (Human) | PIK3CA (human)

CC1(C)CC(=S)c2sc(N3CCOCC3Cc3csc4ccccc34)nc2C1 (configuration not stated)
≤ 50 µM: PIK3CG (human) | PIK3CD (Human) | PIK3CB (Human) | PIK3CA (human)
